Assay results: publication PMC6006164, “Natural cyclopeptide RA-V inhibits the NF-κB signaling pathway by targeting TAK1” (Cell Death & Disease, 2018)

Key:
[1] = molecular target: T1, TAK1–TRAF6 interaction (Homo sapiens, UniProt O43318); assay: Co-immunoprecipitation of TAK1 and TRAF6; assay type: cell-based; conditions: HEK293T, Flag-TAK1 and HA-TRAF6; RA-V 800 nM 6 h
T1 construct: expressed in transfected cells; host or cells: HEK293T
T1 sequence (O43318 1-579 isoform O43318-2): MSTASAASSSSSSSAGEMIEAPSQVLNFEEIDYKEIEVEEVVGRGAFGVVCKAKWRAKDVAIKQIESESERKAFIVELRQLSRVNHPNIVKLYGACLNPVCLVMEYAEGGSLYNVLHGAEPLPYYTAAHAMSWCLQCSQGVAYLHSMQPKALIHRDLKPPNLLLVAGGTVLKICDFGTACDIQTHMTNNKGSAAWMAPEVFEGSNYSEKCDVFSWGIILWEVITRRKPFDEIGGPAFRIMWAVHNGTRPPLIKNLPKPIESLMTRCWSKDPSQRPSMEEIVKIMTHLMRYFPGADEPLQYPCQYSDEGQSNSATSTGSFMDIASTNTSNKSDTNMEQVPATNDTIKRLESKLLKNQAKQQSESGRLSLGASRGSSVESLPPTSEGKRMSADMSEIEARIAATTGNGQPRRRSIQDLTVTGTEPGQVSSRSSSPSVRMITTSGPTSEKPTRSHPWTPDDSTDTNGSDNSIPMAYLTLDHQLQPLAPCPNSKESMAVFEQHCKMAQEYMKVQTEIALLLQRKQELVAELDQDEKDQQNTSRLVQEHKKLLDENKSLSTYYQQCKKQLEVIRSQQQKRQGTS
Protocol: Fig. 4 RA-V blocks the interaction between TAK1 and TAB2. a RA-V blocked the exogenous TAK1–TAB2 interaction. HEK293T cells were transfected with Flag-TAK1 and HA-TAB2 for 24 h and then incubated with various concentrations of RA-V for 6 h. […] HEK293T cells were transfected with Flag-TAK1 and HA-TRAF6 or HA-TAB1 for 24 h and then incubated with RA-V (800 nM) for 6 h. The cell lysates were immunoprecipitated with HA antibody, and immunoblots were performed with the indicated antibodies. d RA-V blocked the endogenous TAK1–TAB2 interaction. HEK293T (left) or RAW264.7 (right) cells were incubated with 800 nM RA-V for 6 h and stimulated with 10 ng/mL TNF-α for 2 h or 1 μg/mL LPS for 3 h, respectively. The cell lysates were immunoprecipitated with TAK1 antibody or control IgG and then immunoblotted with the indicated antibodies. Each experiment was repeated at least three times
The cell lysates were prepared using radioimmunoprecipitation (RIPA) buffer containing 50 mM Tris-HCl pH 7.4, 150 mM NaCl, 1 mM ethylenediaminetetraacetic acid, 1% Triton X-100, 0.5% deoxycholate, and 0.1% sodium dodecyl sulfate, to which protease inhibitors (Roche) were added. The lysates were incubated with the indicated antibodies before adding 20 μL of Protein A/G agarose for 2 h. After four washes with the same buffer, the immunoprecipitates were boiled in 2 × SDS loading buffer.

[2] = test system: p65 phosphorylation, IκBα phosphorylation and IκBα degradation; assay: Western blot of TNF-α-induced NF-κB-associated proteins; assay type: cell-based; conditions: HEK293T or HeLa; RA-V 24 h, 10 ng/mL TNF-α 10 min
Protocol: Fig. 1 RA-V inhibits TNF-α- and LPS-induced activation of NF-κB. a Chemical structure of RA-V. b RA-V inhibited the NF-κB signaling pathway in a dose-dependent manner. HEK293T or HeLa cells were transfected with the 5 × κB-luciferase and pTK-Renilla reporters. Twenty-four hours after transfection, the cells were incubated with various concentrations of RA-V for 6 h, and then treated with 10 ng/mL TNF-α for 2 h before the luciferase activity assay and MTT assay. c RA-V reduced TNF-α-induced expression of NF-κB target genes. HEK293T or HeLa cells were treated with various concentrations of RA-V for 24 h and stimulated with 10 ng/mL TNF-α for 2 h. The expression of the NF-κB target genes, IL-8, MCP-1, and E-selectin was measured by quantitative RT-PCR and normalized to GADPH expression. d RA-V inhibited TNF-α-induced p65 phosphorylation, IκBα phosphorylation and IκBα degradation. HEK293T or HeLa cells were incubated with various concentrations of RA-V for 24 h and treated with 10 ng/mL TNF-α for 10 min. The cell lysates were prepared and subjected to western blot analysis with the indicated antibodies. e RA-V inhibited TNF-α-induced IL-8 production. […] The expression of IL-6 was measured. h RA-V inhibited LPS-induced p65 phosphorylation, IκBα phosphorylation. […] The protein expression was measured. i RA-V inhibited LPS-induced IL-6 production. […] The expression of IL-6 was measured. […]

## RA-V
[1]
  TAK1–TRAF6 interaction: does not disrupt
[2]
  TNF-α-induced IκBα phosphorylation, IκBα degradation, and p65 phosphorylation: dose-dependent inhibitory effects
